Results from patent publication US12577213B2 (NINGBO COMBIREG PHARMACEUTICAL TECHNOLOGY CO., LTD., priority 2020, dated 2026).
Read-outs that look alike come from different tables or passages of the source.

Experiments:
[1] = system: SF295 (central nervous system tumor); assay: NCI method SRB growth inhibition, SF295; format: cell-based; details: Homo sapiens, SF-295; SF295, treated 48 hours, SRB stain
Text: (§1) In this embodiment, the method of National Cancer Institute (NCI) was used to evaluate the anti-tumor activity of the embodiment compounds in the present disclosure. Nine representative cell lines were selected for activity evaluation, including A549 (non-small cell lung cancer), HCT116 (colon cancer), SF295 (central nervous system tumor), LOX-IMVI (melanoma), 786-0 (renal cancer), K562 (leukemia), PC-3 (prostate cancer), OVCAR-3 (ovarian cancer) and HS 578T (breast cancer).
(§2) The specific method was as follows: 60 tumor cell lines of 9 kinds of human cancers were used to evaluate the inhibitory activity of the compound in vitro. A test group, a parallel control group and a vehicle control group were set up. The parallel control group was fixed immediately before the compound was added; the cells in the test group were fixed after being treated with the compound for 48 hours; the vehicle control group was fixed after an equal volume of complete medium was added for 48 hours. Sulforhodamine B (SRB) was used to stain, and the OD value was measured at a wavelength of 515 nm. The specific calculation method was as follows: the OD value of the parallel control group was recorded as Tz, the OD value of the vehicle control group was recorded as C, and the OD value of the test group was recorded as (Ti). If Ti≥Tz, it means that the cells still grow after the drug was added, and the growth rate %=[(Ti−Tz)/(C−Tz)]×100; if Ti<Tz, it means that the cells are killed after the drug was added, and the growth rate %=[(Ti−Tz)/Tz]×100. Three parameters were used to evaluate the anti-tumor activity of compounds in this method: 50% growth inhibitory concentration (GI50): i.e. the compound concentration at [(Ti−Tz)/(C−Tz)]×100=50; complete growth inhibitory concentration (TGI): the compound concentration at Ti=Tz; the drug concentration required to kill 50% of the cells (LC50): i.e. the compound concentration at [(Ti−Tz)/Tz]×100=−50.
(§3) The inhibitory activities of the embodiment compounds on nine representative tumor cell lines were listed in detail in Table 1. Wherein, the GI50 value means “50% growth inhibition rate”, that is, the concentration of the compound to be tested when it can inhibit […] of cell growth; “ND” means not detected.

[2] = system: A549 (non-small cell lung cancer); assay: NCI method SRB growth inhibition, A549; format: cell-based; details: Homo sapiens; A549, treated 48 hours, SRB stain
Text: as §1, §2, §3

786-0 (renal cancer) = assay: NCI method SRB growth inhibition, 786-0; format: cell-based; details: Homo sapiens; 786-0, treated 48 hours, SRB stain
Text: as §1, §2, §3

K562 (leukemia) = assay: NCI method SRB growth inhibition, K562; format: cell-based; details: Homo sapiens; K562, treated 48 hours, SRB stain
Text: as §1, §2, §3

HCT116 (colon cancer) = assay: NCI method SRB growth inhibition, HCT116; format: cell-based; details: Homo sapiens, HCT-116; HCT116, treated 48 hours, SRB stain
Text: as §1, §2, §3

[3] = Liver microsomes stability; format: in vitro ADME, human; details: 1 μM compound, 1 mg/mL human liver microsomes, 1 mM NADPH; for half-life at 1 μM: read-out: T½ of HLM
Method: The compound to be tested with final concentration of 1 μM was incubated with 1 mg/mL of human liver microsomes and 1 mM of NADPH, and a group without NADPH was set as a negative control. The reaction mixture was quenched with methanol at five time points of 0, 5, 15, 30 and 60 min, respectively, then centrifuged at 2500 rpm for 20 min to precipitate proteins, and the resulting supernatant was analyzed by LC-MS/MS. The data was analyzed and the k value and half-life T1/2 was calculated, T1/2(min)=0.693/k.
Wherein, compounds a, b and c are active compounds disclosed in patent No. ZL201610154581.3.

HS 578T (breast cancer) = assay: NCI method SRB growth inhibition, HS 578T; format: cell-based; details: Homo sapiens, HS578T, treated 48 hours, SRB stain
Text: as §1, §2, §3

OVCAR-3 (ovarian cancer) = assay: NCI method SRB growth inhibition, OVCAR-3; format: cell-based; details: Homo sapiens; OVCAR-3, treated 48 hours, SRB stain
Text: as §1, §2, §3

PC-3 (prostate cancer) = assay: NCI method SRB growth inhibition, PC-3; format: cell-based; details: Homo sapiens; PC-3, treated 48 hours, SRB stain
Text: as §1, §2, §3

LOX-IMVI (melanoma) = assay: NCI method SRB growth inhibition, LOX-IMVI; format: cell-based; details: Homo sapiens, treated 48 hours, SRB stain
Text: as §1, §2, §3

Compound | GI50 [1] [nM] | GI50 [2] [nM] | GI50 (786-0 (renal cancer)) [nM] | GI50 (K562 (leukemia)) [nM] | GI50 (HCT116 (colon cancer)) [nM] | microsomal CLint at 1 μM [3] [µL/min/mg] | half-life at 1 μM ([3]; human, human liver microsomes) [min] | GI50 (HS 578T (breast cancer)) [nM] | GI50 (OVCAR-3 (ovarian cancer)) [nM] | GI50 (PC-3 (prostate cancer)) [nM] | GI50 (LOX-IMVI (melanoma)) [nM] | half-life at 1 μM [3] [min] | microsomal CLint at 1 μM ([3]; human, human liver microsomes) [µL/min/mg]
[2H]C([2H])([2H])Oc1cc(C(=O)Nc2cc3c(cc2Oc2cc(C)cc(C)c2)C(=O)N[C@@H](CC(=O)N2CCN(C)CC2)C(=O)N3)c(Br)c(OC([2H])([2H])[2H])c1OC([2H])([2H])[2H] [Compound 29, (S)-2-bromo-N-[7-(3,5-dimethylphenoxy)-3-[2-(4-methylpiperazin-1-yl)-2-oxoethyl]-2,5-dioxo-2,3,4,5-tetrahydro-1H-benzo[e][1,4]diazepin-8-yl]-3,4,5-tris(trideuteromethoxy)benzamide] | 93.8 | 11.8 | 244 | 4.2 | 12 | 5.4 | 128 | < 5 | < 5 | < 5 | < 5 | – | –
[2H]C([2H])([2H])Oc1cc(C(=O)Nc2cc3c(cc2Oc2cc(C)cc(C)c2)C(=O)N[C@@H](CC(=O)N(OC([2H])([2H])[2H])C([2H])([2H])[2H])C(=O)N3)c(Cl)c(OC([2H])([2H])[2H])c1OC([2H])([2H])[2H] [Compound 38] | 27 | < 5 | 23 | < 5 | 13 | 7.2 | 96.3 | 21 | < 5 | < 5 | 5.2 | – | –
[2H]C([2H])([2H])Oc1cc(C(=O)Nc2cc3c(cc2Oc2cc(C)cc(C)c2)C(=O)N(C)[C@@H](CC(=O)N(OC([2H])([2H])[2H])C([2H])([2H])[2H])C(=O)N3)c(Cl)c(OC([2H])([2H])[2H])c1OC([2H])([2H])[2H] [Compound 39] | 12 | < 5 | 9 | < 5 | 7 | 13.7 | 50.6 | 6 | < 5 | < 5 | < 5 | – | –
[2H]C([2H])([2H])Oc1cc(C(=O)Nc2cc3c(cc2Oc2cc(C)cc(C)c2)C(=O)N[C@@H](CC(=O)N(C)O)C(=O)N3)c(Br)c(OC([2H])([2H])[2H])c1OC([2H])([2H])[2H] [Compound 31] | 58 | < 5 | 28.1 | < 5 | 17 | – | – | 8.6 | < 5 | < 5 | < 5 | 43.3 | 16
[2H]C([2H])([2H])N1C(=O)c2cc(Oc3cc(C)cc(C)c3)c(NC(=O)c3cc(OC)c(OC)c(OC)c3Cl)cc2NC(=O)[C@@H]1CC(=O)N(C([2H])([2H])C([2H])([2H])[2H])C([2H])([2H])C([2H])([2H])[2H] [Compound 19, (S)-2-chloro-N-[3-[2-[bis(pentadeuteroethyl)amino]-2-oxoethyl]-7-(3,5-dimethylphenoxy)-4-(trideuteromethyl)-2,5-dioxo-2,3,4,5-tetrahydro-1H-benzo[e][1,4]diazepin-8-yl]-3,4,5-trimethoxybenzamide] | 11.8 | 5.9 | 19.7 | < 5 | 5 | 21.1 | 32.9 | 80.7 | 6.2 | < 5 | < 5 | – | –
[2H]C([2H])([2H])N1C(=O)c2cc(Oc3cc(C)cc(C)c3)c(NC(=O)c3cc(OC)c(OC)c(OC)c3Br)cc2NC(=O)[C@@H]1CC(=O)N(CC)CC [Compound 18, (S)-2-bromo-N-[3-[2-(diethylamino)-2-oxoethyl]-7-(3,5-dimethylphenoxy)-4-trideuteromethyl-2,5-dioxo-2,3,4,5-tetrahydro-1H-benzo[e][1,4]diazepin-8-yl]-3,4,5-trimethoxybenzamide] | < 5 | < 5 | < 5 | < 5 | < 5 | 65.1 | 10.6 | 15.4 | < 5 | < 5 | < 5 | – | –
[2H]C([2H])([2H])Oc1cc(C(=O)Nc2cc3c(cc2Oc2cc(C)cc(C)c2)C(=O)N[C@@H](CC(=O)N(OC([2H])([2H])[2H])C([2H])([2H])[2H])C(=O)N3)c(Br)c(OC([2H])([2H])[2H])c1OC([2H])([2H])[2H] [Compound 37] | 12 | < 5 | 8.6 | < 5 | < 5 | 7.7 | 90 | < 5 | < 5 | < 5 | < 5 | – | –
[2H]c1c(Oc2cc3c(cc2NC(=O)c2cc(OC)c(OC)c(OC)c2Cl)NC(=O)[C@H](CC(=O)N(CC)CC)NC3=O)c([2H])c(C([2H])([2H])[2H])c([2H])c1C([2H])([2H])[2H] [Compound 25, (S)-2-chloro-N-[3-[2-(diethylamino)-2-oxoethyl]-7-[3,5-bis(trideuteromethyl)-2,4,6-trideuterophenoxy]-2,5-dioxo-2,3,4,5-tetrahydro-1H-benzo[e][1,4]diazepin-8-yl]-3,4,5-trimethoxybenzamide] | 14.2 | 19.1 | 15.8 | < 5 | < 5 | 29.8 | 23.3 | 30.3 | 8.3 | 5 | < 5 | – | –
[2H]C([2H])([2H])Oc1cc(C(=O)Nc2cc3c(cc2Oc2cc(C)cc(C)c2)C(=O)N[C@@H](CC(=O)N(C)OC)C(=O)N3)c(Br)c(OC([2H])([2H])[2H])c1OC([2H])([2H])[2H] [Compound 30] | 11.6 | 4.9 | 8.6 | 1.6 | 7.8 | 4.3 | 161 | < 5 | < 5 | < 5 | < 5 | – | –
